Measurements as given in patent US8815774B2, “Herbicidal composition and method of use thereof” (Syngenta Crop Protection LLC, priority 2006, dated 2014).

How the values were obtained:
Type in all cases: in vivo
[1] = test system: Trifolium repens (white clover); assay: Glasshouse trial, control of white clover, pre-emergence application
Protocol: (§1) A glasshouse trial was carried out. Large crabgrass seeds were sown into standard glasshouse potting mix (1:1 v/v Promix:Vero sand soil) contained in 10 cm square plastic pots. Treatments were replicated three times. Mesotrione (in the form Callisto® 480SE) was applied pre-emergence to large crabgrass (Digitaria sanguinalis) at either 12 g ai/ha or 24 g ai/ha with or without sulfentrazone (in the form Authority®). When used, sulfentrazone was applied at a rate of 140 g ai/ha or 280 g ai/ha. The adjuvant system was X-77 at 0.1% v/v in deionised water. 200 litres of herbicide/adjuvant system was used per hectare. General weed control was evaluated at 7 days after treatment (DAT). It is noted that all herbicides were applied at reduced field rates because herbicide effects are magnified in a glasshouse environment. Rates were chosen to give a 50 to 70% level of control with herbicides applied alone as this allows for detection of any synergistic effect when tank mixtures are used.
(§2) It is noted that control of large crabgrass with the higher rate of mesotrione alone was too high to allow for detection synergy when mesotrione was mixed with sulfentrazone. The lower rate of mesotrione was therefore used in this analysis. […] The results were evaluated using the Colby formula. The expected result for (A+B) is (A+B)−(A×B/100) where A and B are the ‘observed’ results for A and B on their own.
(§3) A glasshouse trial was set up as described in Example 1, except using carfentrazone instead of sulfentrazone, Trifolium repens (white clover) instead of large crabgrass, and different herbicide rates.

[2] = test system: Trifolium repens (white clover); assay: Glasshouse trial, control of white clover, post-emergence application
Protocol: as §1, §2, §3
A glasshouse trial was set up as described in Example 2, except using applying the mixture post emergence rather than pre-emergence.

[3] = test system: large crabgrass (Digitaria sanguinalis); assay: Glasshouse trial, control of large crabgrass, pre-emergence application
Protocol: as §1, with “used. It is noted that control of large crabgrass with the higher rate of mesotrione alone was too high to allow for detection synergy when mesotrione was mixed with sulfentrazone. The lower rate of mesotrione was therefore used in this analysis. […] The results were evaluated using the Colby formula. The expected result for (A+B) is (A+B)−(A×B/100) where A and B are the ‘observed’ results for A and B on their own.” for “used.”

[4] = carfentrazone 18 g ai/ha plus mesotrione 25 g ai/ha
[5] = carfentrazone 18 g ai/ha plus mesotrione 50 g ai/ha
[6] = carfentrazone 36 g ai/ha plus mesotrione 25 g ai/ha
[7] = carfentrazone 36 g ai/ha plus mesotrione 50 g ai/ha
[8] = carfentrazone 18 g ai/ha plus mesotrione 100 g ai/ha
[9] = carfentrazone 18 g ai/ha plus mesotrione 150 g ai/ha
[10] = carfentrazone 36 g ai/ha plus mesotrione 100 g ai/ha
[11] = carfentrazone 36 g ai/ha plus mesotrione 150 g ai/ha

| SMILES | Actual control, Plus Mesotrione at 25 g ai/ha [1, 4] | Expected control, Plus Mesotrione at 25 g ai/ha [1, 4] | Actual control, Plus Mesotrione at 50 g ai/ha [1, 5] | Expected control, Plus Mesotrione at 50 g ai/ha [1, 5] | Actual control, Plus Mesotrione at 25 g ai/ha [1, 6] | Expected control, Plus Mesotrione at 25 g ai/ha [1, 6] | Actual control, Plus Mesotrione at 50 g ai/ha [1, 7] | Expected control, Plus Mesotrione at 50 g ai/ha [1, 7] | Actual control, Plus Mesotrione at 100 g ai/ha [2, 8] | Expected control, Plus Mesotrione at 100 g ai/ha [2, 8] | Actual control, Plus Mesotrione at 150 g ai/ha [2, 9] | Expected control, Plus Mesotrione at 150 g ai/ha [2, 9] | Actual control, Plus Mesotrione at 100 g ai/ha [2, 10] | Expected control, Plus Mesotrione at 100 g ai/ha [2, 10] | Actual control, Plus Mesotrione at 150 g ai/ha [2, 11] | Expected control, Plus Mesotrione at 150 g ai/ha [2, 11] | synergy (Colby formula and Student-Newman-Keuls multiple range test) ([3]; mesotrione 12 g ai/ha with sulfentrazone 140 g ai/ha) | Expected control (Colby formula), Plus Mesotrione at 12 g ai/ha ([3]; sulfentrazone 140 g ai/ha plus mesotrione 12 g ai/ha, 7 DAT) | Actual control, Plus Mesotrione at 12 g ai/ha ([3]; sulfentrazone 140 g ai/ha tank mixed with mesotrione 12 g ai/ha, 7 DAT) | control of large crabgrass, herbicide on its own ([3]; sulfentrazone alone (lower rate, 140 g ai/ha), 7 DAT) [%] |
| --- | --- | --- | --- | --- | --- | --- | --- | --- | --- | --- | --- | --- | --- | --- | --- | --- | --- | --- | --- | --- |
| Cc1nn(-c2cc(CC(Cl)C(=O)O)c(Cl)cc2F)c(=O)n1C(F)F (centres unmarked) [Carfentrazone] | 55 | 50 | 75 | 62 | 73 | 49 | 85 | 61 | 70 | 43 | 93 | 65 | 72 | 53 | 93 | 71 | – | – | – | – |
| Cc1nn(-c2cc(NS(C)(=O)=O)c(Cl)cc2Cl)c(=O)n1C(F)F [Sulfentrazone, 2′,4′-dichloro-5′-(4-difluoromethyl-4,5-dihydro-3-methyl-5-oxo-1H-1,2,4-triazol-1-yl)methanesulfonanilide] | – | – | – | – | – | – | – | – | – | – | – | – | – | – | – | – | synergy was seen | 87.0 | 100 | 75 |
